Measurements from US20240398762A1, “PHARMACEUTICAL COMPOSITION WITH ANALGESIC AND/OR ANTIPRURITIC FUNCTIONS AND APPLICATION THEREOF” (PENGEKIPHEN BIOTECH LIMITED COMPANY, priority 2022, published 2024).
Counter-ions that a name gives are not always drawn.

Tests used:
miR-96−/− mice = experiment: Mechanical pain threshold (Von Frey paw withdrawal threshold) of hind paws after intragastric administration; format: in vivo, mouse; conditions: 1 h after administration; for dose group exhibiting the best analgesic effect: three doses tested
Procedure: In order to screen an analgesic drug with excellent oral efficacy, analgesic effects of intragastric administration of Nav1.7 inhibitor and Nav1.8 inhibitor in eight 3-6-month-old miR-96^−/− mice ([…] BIOTECH LIMITED COMPANY) were tested.
Firstly, mechanical pain thresholds of hind paws of the miR-96^−/− mice were measured. The eight miR-96^−/− mice were placed on an iron frame and covered with a plexiglass cover. After 30 min, paw withdrawal thresholds (PWT) of the mice were measured using Von Frey (DanMic Global, CA, USA). […] 1 h after the intragastric administration of 30 μg/kg, 60 μg/kg or 90 μg/kg of PF-06305591, the mechanical pain thresholds of the hind paws of the miR-96″ mice were measured.

[1] = test system: subjects with painful diabetic peripheral neuropathy; conditions: McDonnell et al., Pain 2018; cited from earlier work

NC(=O)[C@@H]1CC[C@H](c2ccc(OCc3ccccc3F)cc2)N1 [CNV1014802]
analgesic effect versus solvent control group (miR-96−/− mice; 20 mg/kg intragastric): significant analgesic effects
analgesic effect versus solvent control group (miR-96−/− mice; 30 mg/kg intragastric): significant analgesic effects
analgesic effect versus solvent control group (miR-96−/− mice; 40 mg/kg intragastric): significant analgesic effects
dose group exhibiting the best analgesic effect (miR-96−/− mice; intragastric): 30 mg/kg

NCC1(CC(=O)O)CCCCC1 [Gabapentin]
effect on mechanical pain thresholds (miR-96−/− mice; 50 mg/kg intragastric): significantly improve the mechanical pain thresholds

CC(C)(N)c1ncc(-c2ccc(OC(F)(F)F)cc2)[nH]1 [PF-04885614, 1-methyl-1-[4-(4-trifluoromethoxy-phenyl)-1H-imidazol-2-yl]-ethylamine]
analgesic effect versus solvent control group (miR-96−/− mice; 180 μg/kg intragastric): significantly better than that of the solvent control group
analgesic effect versus solvent control group (miR-96−/− mice; 270 μg/kg intragastric): significantly better than that of the solvent control group
dose group exhibiting the best analgesic effect (miR-96−/− mice; intragastric): 0.18 mg/kg

Nc1n[nH]cc1-c1cc(Cl)ccc1Oc1cc(F)c(S(=O)(=O)Nc2cscn2)cc1Cl [PF-05089771, 4-[2-(3-amino-1H-pyrazol-4-yl)-4-chlorophenoxy]-5-chloro-2-fluoro-N-4-thiazolylbenzenesulfonamide tosylate]
analgesic effect versus solvent control group (miR-96−/− mice; 4 mg/kg intragastric): significantly better than that of the solvent control group
analgesic effect versus solvent control group (miR-96−/− mice; 6 mg/kg intragastric): significantly better than that of the solvent control group
efficacy of the 6 mg/kg-dose group compared with the 4 mg/kg-dose group (miR-96−/− mice; intragastric): not better than that of the 4 mg/kg-dose group
analgesic effect in clinical studies [1]: does not exhibit desired analgesic effect

C[C@@H](C(N)=O)[C@H](N)c1nc2cc(C(C)(C)C)ccc2[nH]1 [PF-06305591, (αR, βS)-β-Amino-6-(1,1-dimethylethyl)-α-methyl-1H-benzimidazole-2-propanamide dihydrate]
analgesic effect versus solvent control group (miR-96−/− mice; 60 μg/kg intragastric): significantly better than that of the solvent control group
analgesic effect versus solvent control group (miR-96−/− mice; 90 μg/kg intragastric): significantly better than that of the solvent control group
dose group exhibiting the best analgesic effect (miR-96−/− mice; intragastric): 0.06 mg/kg

N#Cc1cc(S(=O)(=O)Nc2ncns2)ccc1Oc1ccc(-c2cccc(C(F)(F)F)c2)cc1-c1ccnc(CNCCC2CCNCC2)c1 [PF-06456384, 3-cyano-4-[[3-[2-[[[2-(4-piperidinyl)ethyl]amino]methyl]-4-pyridinyl]-3′-(trifluoromethyl)[1,1′-biphenyl]-4-yl]oxy]-N-1,2,4-thiadiazol-5-yl-benzenesulfonamide trihydrochloride]
analgesic effect versus solvent control group (miR-96−/− mice; 1 mg/kg intragastric): significant analgesic effects
analgesic effect versus solvent control group (miR-96−/− mice; 2 mg/kg intragastric): significant analgesic effects
analgesic effect versus solvent control group (miR-96−/− mice; 3 mg/kg intragastric): significant analgesic effects
dose group exhibiting the best analgesic effect (miR-96−/− mice; intragastric): 2 mg/kg
